Biological target: T1, human mPGES-1 (Homo sapiens, UniProt O14684)
T1 sequence (O14684 1-152): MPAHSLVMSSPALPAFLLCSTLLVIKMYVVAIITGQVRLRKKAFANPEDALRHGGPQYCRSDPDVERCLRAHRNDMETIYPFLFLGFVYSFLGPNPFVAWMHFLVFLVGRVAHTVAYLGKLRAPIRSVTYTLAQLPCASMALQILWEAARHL
Assay: Microsomal prostaglandin E synthase biochemical assay
Conditions: microsome preparation containing human mPGES-1; PGH2 10.8 μM, GSH 2.5 mM, pH 6.8; PGE2 quantified by HTRF; average of at least n=2
Procedure: Compounds were tested as inhibitors of microsomal prostaglandin E synthase activity in microsomal prostaglandin E synthase assays and whole cell assays. These assays measure prostaglandin E2 (PGE2) synthesis which is taken as a measure of prostaglandin E synthase activity. Microsomal prostaglandin E synthase biochemical assays used microsomal prostaglandin E synthase-1 in microsomal preparations. The source of the microsomes can be for example interleukin-1β-stimulated human A549 cells (which express human mPGES-1) or Sf9 cells transfected with plasmids encoding human mPGES-1 cDNA.
A solution of test compound was added to a diluted microsome preparation containing human mPGES-1 and pre-incubated for 15 minutes in potassium phosphate buffer pH 6.8 with cofactor glutathione (GSH). Corresponding solutions without test compound were used as positive controls, and corresponding solutions without test compound and without microsomes were used as negative controls. The enzymatic reaction was then started by addition of the substrate PGH2 in an organic solution (dry acetonitrile).
The reaction was stopped after one minute by adding an acidic solution (pH 1.9) of ferric chloride and citrate (final concentrations 7 mM and 47 mM respectively), by which the PGH2 was sequestered (the PGH2 is reduced to mainly 12-hydroxy heptadecatrineoic acid (12-HHT) which is not detected by the subsequent PGE2 detection step). The resulting solution was then pH neutralized by addition of potassium phosphate buffer, prior to diluting an aliquot of the resulting solution in a weak potassium phosphate buffer (50 mM, pH 6.8) containing 0.2% BSA (w/v). […] The PGE2 formed was quantified by use of a commercial HTRF based kit (catalogue #62PG2PEC or #62P2APEC from Cisbio International). 100% activity was defined as the PGE2 production in positive controls subtracted by the PGE2 production in the negative controls. IC50 values were then determined using standard procedures.

| Structure (SMILES) | IC50 [nM] |
| --- | --- |
| COc1cc(C(=O)NS(=O)(=O)c2ccccc2S(N)(=O)=O)ccc1-c1cc2ccccc2o1 [Example 50, 4-(Benzofuran-2-yl)-3-methoxy-N-(2-sulfamoylphenylsulfonyl)benzamide] | 3.2 |
| COc1c(C#CC(C)(C)C)ccc(C(=O)NS(=O)(=O)c2ccccc2S(N)(=O)=O)c1C [Example 68, 4-(3,3-Dimethylbut-1-ynyl)-3-methoxy-2-methyl-N-(2-sulfamoylphenylsulfonyl)-benzamide] | 2000 |
| CC(C)(C)c1cc2cc(C(=O)NS(=O)(=O)c3ccccc3S(N)(=O)=O)ccc2o1 [Example 76, 2-tert-Butyl-N-(2-sulfamoylphenylsulfonyl)benzofuran-5-carboxamide] | 110 |
| NS(=O)(=O)c1ccccc1S(=O)(=O)NC(=O)[C@H]1CC[C@H](c2cc3ccccc3o2)CC1 [Example 106, (1r,4r)-4-(Benzofuran-2-yl)-N-(2-sulfamoylphenylsulfonyl)cyclohexanecarboxamide] | 140 |
| COCCOCCOc1cc(C(=O)NS(=O)(=O)c2ccccc2S(N)(=O)=O)ccc1C#CC(C)(C)C [Example 118, 4-(3,3-Dimethylbut-1-ynyl)-3-(2-(2-methoxyethoxy)ethoxy)-N-(2-sulfamoylphenyl-sulfonyl)benzamide] | 620 |
| NS(=O)(=O)c1ccccc1S(=O)(=O)NC(=O)c1cccc(COCC(F)(F)C(F)F)c1 [Example 21, N-(2-Sulfamoylphenyl)sulfonyl-3-(2,2,3,3-tetrafluoropropoxymethyl)benzamide] | 2200 |
| NS(=O)(=O)c1ccccc1S(=O)(=O)NC(=O)c1ccc(C#Cc2cccnc2)cc1 [Example 70, 4-(Pyridin-3-ylethynyl)-N-(2-sulfamoylphenylsulfonyl)benzamide] | 320 |
| COc1cc(C(=O)NS(=O)(=O)c2ccccc2S(N)(=O)=O)cnc1C#CC1CCCC1 [Example 137, 6-(Cyclopentylethynyl)-5-methoxy-N-(2-sulfamoylphenylsulfonyl)nicotinamide] | 20 |
| CC(C)Oc1cc(C(=O)NS(=O)(=O)c2ccccc2S(N)(=O)=O)ccc1C#CC1CC1 [Example 132, 4-(Cyclopropylethynyl)-3-isopropoxy-N-(2-sulfamoylphenylsulfonyl)benzamide] | 110 |
| CC(OC(C)(C)C)c1cc2cc(C(=O)NS(=O)(=O)c3ccccc3S(N)(=O)=O)ccc2o1 (centres unmarked) [Example 121, 2-(1-tert-Butoxyethyl)-N-(2-sulfamoylphenylsulfonyl)benzofuran-5-carboxamide] | 2100 |
| COCCn1c(-c2ccccc2)cc2cc(C(=O)NS(=O)(=O)c3ccccc3S(N)(=O)=O)ccc21 [Example 141, 1-(2-Methoxyethyl)-2-phenyl-N-(2-sulfamoylphenylsulfonyl)-1H-indole-5-carboxamide] | 300 |
| COCCOCCOc1cc(C(=O)NS(=O)(=O)c2ccccc2S(N)(=O)=O)cnc1-c1cc2ccccc2o1 [Example 135, 6-(Benzofuran-2-yl)-5-(2-(2-methoxyethoxy)ethoxy)-N-(2-sulfamoylphenylsulfonyl)-nicotinamide] | 81 |
| C[C@]1(C(=O)NS(=O)(=O)c2ccccc2S(N)(=O)=O)CC[C@H](c2cc3ccccc3o2)CC1 [Example 108, (1r,4r)-4-(Benzofuran-2-yl)-1-methyl-N-(2-sulfamoylphenylsulfonyl)cyclohexane-carboxamide] | 7000 |
| NS(=O)(=O)c1ccccc1S(=O)(=O)NC(=O)c1ccc2[nH]c(Cc3ccccc3)cc2c1 [Example 158, 2-Benzyl-N-(2-sulfamoylphenylsulfonyl)-1H-indole-5-carboxamide] | 580 |
| NS(=O)(=O)c1ccccc1S(=O)(=O)NC(=O)c1c(F)cc(C#CC2CCCC2)cc1F [Example 153, 4-(Cyclopentylethynyl)-2,6-difluoro-N-(2-sulfamoylphenylsulfonyl)benzamide] | 330 |
| NS(=O)(=O)c1ccccc1S(=O)(=O)NC(=O)c1ccc2oc(C3CC3)cc2c1 [Example 126, 2-Cyclopropyl-N-(2-sulfamoylphenylsulfonyl)benzofuran-5-carboxamide] | 260 |
| CC(C)Oc1cc(C(=O)NS(=O)(=O)c2ccccc2S(N)(=O)=O)ccc1C#CC1CCCC1 [Example 130, 4-(Cyclopentylethynyl)-3-isopropoxy-N-(2-sulfamoylphenylsulfonyl)benzamide] | 20 |
| CC(C)(C)C#Cc1ccc(C(=O)NS(=O)(=O)c2ccccc2S(N)(=O)=O)c(F)c1 [Example 84, 4-(3,3-Dimethylbut-1-ynyl)-2-fluoro-N-(2-sulfamoylphenylsulfonyl)benzamide] | 170 |

| Structure (SMILES) | IC50 [nM] |
| --- | --- |
| NS(=O)(=O)c1ccccc1S(=O)(=O)NC(=O)c1ccc(OCc2ccccc2)cc1 [Example 30, 4-Phenylmethoxy-N-(2-sulfamoylphenyl)sulfonyl-benzamide] | 160 |
| NS(=O)(=O)c1ccccc1S(=O)(=O)NC(=O)[C@H]1CC[C@@H](c2cc3ccccc3o2)CC1 [Example 105, (1s,4s)-4-(Benzofuran-2-yl)-N-(2-sulfamoylphenylsulfonyl)cyclohexanecarboxamide] | 2100 |
| NS(=O)(=O)c1ccccc1S(=O)(=O)NC(=O)c1ccc(-c2nc3cnccc3o2)cc1 [Example 6, 4-(7-Oxa-3,9-diazabicyclo [4.3.0]nona-2,4,8,10-tetraen-8-yl)-N-(2-sulfamoylphenyl)-sulfonyl-benzamide] | 1100 |
| Cc1nc(-c2cccc(C(F)(F)F)c2)sc1C(=O)NS(=O)(=O)c1ccccc1S(N)(=O)=O [Example 22, 4-Methyl-N-(2-sulfamoylphenyl)sulfonyl-2-[3-(trifluoromethyl)phenyl]1,3-thiazole-5-carboxamide] | 30 |
| NS(=O)(=O)c1ccccc1S(=O)(=O)NC(=O)c1ccc(-c2cc3ccccc3o2)cc1 [Example 3, 4-Benzofuran-2-yl-N-(2-sulfamoylphenyl)sulfonyl-benzamide] | 5.8 |
| NS(=O)(=O)c1ccccc1S(=O)(=O)NC(=O)c1ccc(C#CC2CCCCC2)cn1 [Example 88, 5-(Cyclohexylethynyl)-N-(2-sulfamoylphenylsulfonyl)picolinamide] | 140 |
| NS(=O)(=O)c1ccccc1S(=O)(=O)NC(=O)c1ccc(-c2cccc(Cl)c2Cl)cn1 [Example 2, 5-(2,3-Dichlorophenyl)-N-(2-sulfamoylphenyl)sulfonyl-pyridine-2-carboxamide] | 2000 |
| COCC#Cc1ccc(C(=O)NS(=O)(=O)c2ccccc2S(N)(=O)=O)cc1 [Example 53, 4-(3-Methoxyprop-1-ynyl)-N-(2-sulfamoylphenylsulfonyl)benzamide] | 1600 |
| NS(=O)(=O)c1ccccc1S(=O)(=O)NC(=O)c1ccc(-c2ccccc2)cc1 [Example 31, 4-Phenyl-N-(2-sulfamoylphenyl)sulfonyl-benzamide] | 320 |
| NS(=O)(=O)c1ccccc1S(=O)(=O)NC(=O)c1ccc(Br)c(F)c1 [Example 13, 4-Bromo-3-fluoro-N-(2-sulfamoylphenyl)sulfonyl-benzamide] | 290 |
| NS(=O)(=O)c1ccccc1S(=O)(=O)NC(=O)c1ccc(C#CC2(O)CCCC2)cc1 [Example 58, 4-((1-Hydroxycyclopentyl)ethynyl)-N-(2-sulfamoylphenylsulfonyl)benzamide] | 1900 |
| NS(=O)(=O)c1ccccc1S(=O)(=O)NC(=O)c1ccc(-c2cc3ccccc3o2)cc1Cl [Example 91, 4-(Benzofuran-2-yl)-2-chloro-N-(2-sulfamoylphenylsulfonyl)benzamide] | 120 |
| CC(C)(O)C#Cc1cc(C(=O)NS(=O)(=O)c2ccccc2S(N)(=O)=O)ccc1-c1cc2ccccc2o1 [Example 154, 4-(Benzofuran-2-yl)-3-(3-hydroxy-3-methylbut-1-ynyl)-N-(2-sulfamoylphenyl-sulfonyl)benzamide] | 9.9 |
| NS(=O)(=O)c1ccccc1S(=O)(=O)NC(=O)c1ccc(C#CC2CCCC2)c(F)c1 [Example 146, 4-(Cyclopentylethynyl)-3-fluoro-N-(2-sulfamoylphenylsulfonyl)benzamide] | 15 |
| NS(=O)(=O)c1ccccc1S(=O)(=O)NC(=O)c1ccc(-c2cc3ccccc3o2)nc1 [Example 117, 6-(Benzofuran-2-yl)-N-(2-sulfamoylphenylsulfonyl)nicotinamide] | 180 |
| C[C@]1(C(=O)NS(=O)(=O)c2ccccc2S(N)(=O)=O)CC[C@@H](c2cc3ccccc3o2)CC1 [Example 109, (1s,4s)-4-(Benzofuran-2-yl)-1-methyl-N-(2-sulfamoylphenylsulfonyl) cyclohexane-carboxamide] | 270 |
| CCC(C)(O)C#Cc1ccc(C(=O)NS(=O)(=O)c2ccccc2S(N)(=O)=O)cc1 (centres unmarked) [Example 57, 4-(3-Hydroxy-3-methylpent-1-ynyl)-N-(2-sulfamoylphenylsulfonyl)benzamide] | 8800 |

— patent US20090131468A1, “Bis-(Sulfonylamino) Derivatives in Therapy 065” (AstraZeneca AB, priority 2007, published 2009)
